Measurements: US10131644B2, “Aryl sultam derivatives as RORc modulators” (Genentech, Inc., priority 2014, dated 2018)

Target: T1, RORc (Homo sapiens, UniProt P51449)
T1 sequence (P51449 269-508 limits assumed): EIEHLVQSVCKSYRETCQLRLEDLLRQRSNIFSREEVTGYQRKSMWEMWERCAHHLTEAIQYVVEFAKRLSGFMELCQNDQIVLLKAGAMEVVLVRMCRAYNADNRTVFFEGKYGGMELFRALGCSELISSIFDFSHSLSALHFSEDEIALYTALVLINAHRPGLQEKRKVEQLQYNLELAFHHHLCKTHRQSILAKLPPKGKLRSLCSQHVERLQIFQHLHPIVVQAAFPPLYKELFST
Assay: In vitro RORc ligand binding assay (25-[3H]hydroxycholesterol displacement)
Settings: IC50, IC50 values for RORc; unit inferred

| IC50 [nM] | Structure (SMILES) |
| --- | --- |
| 21.6 | CC(=O)N1CCC(OCC(O)CO)(c2cc(F)c(CN3[C@@H](C)CC[C@H](c4ccccc4)S3(=O)=O)cc2F)CC1 (stereo partly drawn) [Compound 144, 1-[4-[2,5-difluoro-4-[[(3S,6R)-3-methyl-1,1-dioxo-6-phenyl-thiazinan-2-yl]methyl]phenyl]-4-(2,3-dihydroxypropoxy)-1-piperidyl]ethanone] |
| 310 | C[C@H]1CC[C@H](c2ccccc2)S(=O)(=O)N1Cc1ccc([C@]2(C#N)CC[C@@H](NC=O)CC2)cc1 [Example 19, N-{4-Cyano-4-[4-((3S,6R)-3-methyl-1,1-dioxo-6-phenyl-[1,2]thiazinan-2-ylmethyl)-phenyl]-cyclohexyl}-formamide] |
| 122 | C[C@H]1CC[C@H](c2ccccc2)S(=O)(=O)N1Cc1ccc(C2(NC(=O)CO)CCOCC2)cc1F [Compound 95, N-[4-[3-fluoro-4-[[(3S,6R)-3-methyl-1,1-dioxo-6-phenyl-thiazinan-2-yl]methyl]phenyl]tetrahydropyran-4-yl]-2-hydroxy-acetamide] |
| 63.9 | C[C@H]1CC[C@H](c2ccccc2)S(=O)(=O)N1Cc1ccc(C2(C#N)CC(=O)C2)cc1F [Compound 162, 1-[3-fluoro-4-[[(3S,6R)-3-methyl-1,1-dioxo-6-phenyl-thiazinan-2-yl]methyl]phenyl]-3-oxo-cyclobutanecarbonitrile] |
| 11.1 | C[C@H]1CC[C@H](c2ccccc2)S(=O)(=O)N1Cc1ccc(C2(C(N)=O)CC(F)(F)C2)cc1F [Compound 167, 3,3-difluoro-1-[3-fluoro-4-[[(3S,6R)-3-methyl-1,1-dioxo-6-phenyl-thiazinan-2-yl]methyl]phenyl]cyclobutanecarboxamide] |
| 7.8 | C[C@H]1CC[C@H](c2ccccc2)S(=O)(=O)N1Cc1cc(F)c(C2(OCC(O)CO)CCOCC2)cc1F (stereo partly drawn) [Compound 151, 3-[4-[2,5-difluoro-4-[[(3S,6R)-3-methyl-1,1-dioxo-6-phenyl-thiazinan-2-yl]methyl]phenyl]tetrahydropyran-4-yl]oxypropane-1,2-diol] |
| 220 | C[C@H]1CC[C@H](c2ccccc2)S(=O)(=O)N1Cc1ccc(OCC2(C#N)CCOCC2)cc1F [Example 6, 4-{3-Fluoro-4-((3S,6R)-3-methyl-1,1-dioxo-6-phenyl-[1,2]thiazinan-2-ylmethyl)-phenoxymethyl]-tetrahydro-pyran-4-carbonitrile] |
| 20 | C[C@H]1CC[C@H](c2ccccc2)S(=O)(=O)N1Cc1cc(F)c([C@]2(O)CC[C@@H](n3cnnc3)CC2)cc1F [Compound 37, 1-[2,5-Difluoro-4-((3S,6R)-3-methyl-1,1-dioxo-6-phenyl-[1,2]thiazinan-2-ylmethyl)-phenyl]-4-[1,2,4]triazol-4-yl-cyclohexanol] |
| 1800 | CC(=O)N[C@H]1CC[C@](C#N)(c2ccc(CN3[C@@H](C)CC[C@@H](c4ccccc4)S3(=O)=O)c(F)c2)CC1 [Compound 33, N-{4-Cyano-4-[3-fluoro-4-((3S,6S)-3-methyl-1,1-dioxo-6-phenyl-[1,2]thiazinan-2-ylmethyl)-phenyl]-cyclohexyl}-acetamide] |
| 38.5 | C[C@H]1CC[C@H](c2ccccc2)S(=O)(=O)N1Cc1ccc(C2(CO)CCOCC2)cc1F [Compound 68, [4-[3-fluoro-4-[[(3S,6R)-3-methyl-1,1-dioxo-6-phenyl-thiazinan-2-yl]methyl]phenyl]tetrahydropyran-4-yl]methanol] |
| 74 | C[C@H]1CC[C@H](c2ccccc2)S(=O)(=O)N1Cc1ccc(C2(NCCCO)CCOCC2)cc1F [Compound 187, 3-[[4-[3-fluoro-4-[[(3S,6R)-3-methyl-1,1-dioxo-6-phenyl-thiazinan-2-yl]methyl]phenyl]tetrahydropyran-4-yl]amino]propan-1-ol] |
| 24 | C[C@H]1CC[C@H](c2ccccc2)S(=O)(=O)N1Cc1ccc(C2(N(C)CC(N)=O)CCOCC2)cc1F [Compound 188, 2-[[4-[3-fluoro-4-[[(3S,6R)-3-methyl-1,1-dioxo-6-phenyl-thiazinan-2-yl]methyl]phenyl]tetrahydropyran-4-yl]-methyl-amino]acetamide] |
| 32.1 | C[C@H]1CC[C@H](c2ccccc2)S(=O)(=O)N1Cc1ccc(C2(C(C)(C)O)CCOCC2)cc1F [Compound 76, 2-[4-[3-fluoro-4-[[(3S,6R)-3-methyl-1,1-dioxo-6-phenyl-thiazinan-2-yl]methyl]phenyl]tetrahydropyran-4-yl]propan-2-ol] |
| 3.2 | C[C@H]1CC[C@H](c2ccccc2)S(=O)(=O)N1Cc1ccc(C2(NCC(N)=O)CCOCC2)cc1F [Compound 163, 2-[[4-[3-fluoro-4-[[(3S,6R)-3-methyl-1,1-dioxo-6-phenyl-thiazinan-2-yl]methyl]phenyl]tetrahydropyran-4-yl]amino]acetamide] |
| 8.8 | C[C@H]1CC[C@H](c2ccccc2)S(=O)(=O)N1Cc1ccc(C2(CCC(N)=O)CCOCC2)cc1F [Compound 87, 3-[4-[3-fluoro-4-[[(3S,6R)-3-methyl-1,1-dioxo-6-phenyl-thiazinan-2-yl]methyl]phenyl]tetrahydropyran-4-yl]propanamide] |
| 32.5 | C[C@H]1CC[C@H](c2ccccc2)S(=O)(=O)N1Cc1cc(F)c(C2(CCC(=O)N(C)C)CC2)cc1F [Compound 147, 3-[1-[2,5-difluoro-4-[[(3S,6R)-3-methyl-1,1-dioxo-6-phenyl-thiazinan-2-yl]methyl]phenyl]cyclopropyl]-N,N-dimethyl-propanamide] |
| 22.7 | C[C@H]1CC[C@H](c2ccccc2)S(=O)(=O)N1Cc1cc(F)c(C2(C#N)CC2)cc1F [Compound 123, 1-[2,5-difluoro-4-[[(3S,6R)-3-methyl-1,1-dioxo-6-phenyl-thiazinan-2-yl]methyl]phenyl]cyclopropanecarbonitrile] |
| 8 | C[C@H]1CC[C@H](c2ccccc2)S(=O)(=O)N1Cc1ccc(C2(OCC(N)=O)COC2)cc1F [Compound 186, 2-[3-[3-fluoro-4-[[(3S,6R)-3-methyl-1,1-dioxo-6-phenyl-thiazinan-2-yl]methyl]phenyl]oxetan-3-yl]oxyacetamide] |
| 96 | CNC(=O)[C@]1(c2ccc(CN3[C@@H](C)CC[C@H](c4ccccc4)S3(=O)=O)c(F)c2)CC[C@H](n2cnnc2)CC1 [Compound 43, 1-[3-Fluoro-4-((3S,6R)-3-methyl-1,1-dioxo-6-phenyl[1,2]thiazinan-2-ylmethyl)-phenyl]-4-[1,2,4]triazol-4-yl-cyclohexanecarboxylic acid methylamide] |
| 72.8 | C[C@H]1CC[C@@H](c2ccccc2)S(=O)(=O)N1Cc1cc(F)c(C2(CO)CCC(O)CC2)cc1F (stereo partly drawn) [Compound 131] |
| 52.9 | C[C@H]1CC[C@H](c2ccccc2)S(=O)(=O)N1Cc1ccc(C2(C(=O)NCCC#N)CCOCC2)cc1F [Compound 65, N-(2-cyanoethyl)-4-[3-fluoro-4-[[(3S,6R)-3-methyl-1,1-dioxo-6-phenyl-thiazinan-2-yl]methyl]phenyl]tetrahydropyran-4-carboxamide] |
| 14.8 | CNC(=O)CCC1(c2ccc(CN3[C@@H](C)CC[C@H](c4ccccc4)S3(=O)=O)c(F)c2)CCOCC1 [Compound 88, 3-[4-[3-fluoro-4-[[(3S,6R)-3-methyl-1,1-dioxo-6-phenyl-thiazinan-2-yl]methyl]phenyl]tetrahydropyran-4-yl]-N-methyl-propanamide] |
| 2.6 | C[C@H]1CC[C@H](c2ccccc2)S(=O)(=O)N1Cc1cc(F)c(C2(OCC(N)=O)COC2)cc1F [Compound 138, 2-[3-[2,5-difluoro-4-[[(3S,6R)-3-methyl-1,1-dioxo-6-phenyl-thiazinan-2-yl]methyl]phenyl]oxetan-3-yl]oxyacetamide] |
| 5.7 | CNC(=O)COC1(c2cc(F)c(CN3[C@@H](C)CC[C@H](c4ccccc4)S3(=O)=O)cc2F)CCOCC1 [Compound 154, 2-[4-[2,5-difluoro-4-[[(3S,6R)-3-methyl-1,1-dioxo-6-phenyl-thiazinan-2-yl]methyl]phenyl]tetrahydropyran-4-yl]oxy-N-methyl-acetamide] |
| 79.8 | C[C@H]1CC[C@H](c2ccccc2)S(=O)(=O)N1Cc1ccc(C2(C(=O)NCCCO)CCOCC2)cc1F [Compound 54, 4-[3-fluoro-4-[[(3S,6R)-3-methyl-1,1-dioxo-6-phenyl-thiazinan-2-yl]methyl]phenyl]-N-(3-hydroxypropyl)tetrahydropyran-4-carboxamide] |
| 13 | COC(=O)C1(c2ccc(CN3[C@@H](C)CC[C@H](c4ccccc4)S3(=O)=O)c(F)c2)CCN(C(C)=O)CC1 [Compound 124, methyl 1-acetyl-4-[3-fluoro-4-[[(3S,6R)-3-methyl-1,1-dioxo-6-phenyl-thiazinan-2-yl]methyl]phenyl]piperidine-4-carboxylate] |
| 46 | C[C@H]1CC[C@H](c2ccccc2)S(=O)(=O)N1Cc1ccc(OCC2(CS(C)(=O)=O)CCOCC2)cc1F [Example 4, (3S,6R)-2-[2-Fluoro-4-(4-methanesulfonylmethyl-tetrahydro-pyran-4-ylmethoxy)-benzyl]-3-methyl-6-phenyl-[1,2]thiazinane 1,1-dioxide] |
| 2.65 | C[C@H]1CC[C@H](c2ccccc2)S(=O)(=O)N1Cc1cc(F)c(C2(O)COC2)cc1F [Compound 192, 3-[2,5-difluoro-4-[[(3S,6R)-3-methyl-1,1-dioxo-6-phenyl-thiazinan-2-yl]methyl]phenyl]oxetan-3-ol] |
| 200 | CC(=O)N1CCC(F)(c2ccc(CN3[C@@H](C)CC[C@H](c4ccccc4)S3(=O)=O)cc2)CC1 [Example 8, 1-{4-Fluoro-4-[4-((3S,6R)-3-methyl-1,1-dioxo-6-phenyl-[1,2]thiazinan-2-ylmethyl)-phenyl]-piperidin-1-yl}-ethanone] |
| 23.7 | COC1(OC)CC(C(N)=O)(c2ccc(CN3[C@@H](C)CC[C@H](c4ccccc4)S3(=O)=O)c(F)c2)C1 [Compound 181, 1-[3-fluoro-4-[[(3S,6R)-3-methyl-1,1-dioxo-6-phenyl-thiazinan-2-yl]methyl]phenyl]-3,3-dimethoxy-cyclobutanecarboxamide] |
